Experimental data: patent US20020155172A1, “Methods and compounds for decreasing cell toxicity or death” (priority 2000, published 2002)

Experiments:
[1] = test system: HeLa cells expressing Q79 expanded polyglutamine repeats; assay: Cell death induced by TNF-α/CHX, Fas/CHX or H2O2; assay type: cell-based; conditions: 100 μM, one hour before the inducing agent; cell death 48 hours later
Procedure: FIG. 5F is a graph of the effects of Congo red, ZVAD, or vehicle (NT) on cell death when the cells are induced to die by receptor mediated pathways (TNF-α/cycloheximide (CHX), Fas/cycloheximide (CHX)), or necrosis (hydrogen peroxide).
HeLa cells expressing Q79 expanded polyglutamine repeats were treated with 100 μM Congo red, or 100 μM ZVAD (a positive control) for one hour prior to the addition of the apoptosis-inducing agent, and cell death was determined 48 hours later. […] Finally we tested whether Congo red can inhibit apoptosis induced by overexpression of caspase-1, -8, or -11.

[2] = test system: Q79-expressing HeLa cells; assay: Turnover of S35-labeled expanded polyglutamine repeats; assay type: cell-based
Procedure: FIG. 8A is a set of scanned autoradiograms showing the effect of Congo red on expanded polyglutamine repeat turn-over, as assessed by relative levels of S^35 labeled polyQ (Q79) protein, with or without Congo red treatment. Q79-HA expressing cells were metabolically labeled with S^35 methionine for one hour. Cells were harvested one and 24 hours after labeling. PolyQ protein was immunoprecipitated with an anti-HA antibody, and the proteins were separated by electrophoresis before blotting.
We next determined whether inhibition and disruption of Q79 oligomers changed its turnover kinetics by measuring pulse-S^35-labeled polyglutamine levels in the presence or absence of Congo red.

[3] = test system: R62 transgenic mice; assay: Rotorod, muscle strength, first study; assay type: in vivo; conditions: R62Tg mice; 10 rpm, maximum 60 seconds; versus R62Tg without Congo red
Procedure: FIG. 9 is a graph showing the effect of intraperitoneal injection of Congo red on the motor performance in the mouse model of Huntington's disease (R62). Wild type mice or R62 transgenic mice carrying a polyglutamine repeat (R62Tg) were injected with either 0.5 ml of 1 mg/ml Congo red in phosphate buffered saline (PBS) or PBS alone and tested for their muscle strength by measuring their ability to remain on the rotorod at 10 rpm for a maximum period of 60 seconds.
Transgenic R62 mice that express the human Huntington's disease gene (carrying a 139-157 CAG repeat; Mangiarini et al., Cell 87:493-506, 1996; Carter et al., J. Neurosci. 19:3248-3257, 1999; and Levine et al., J. Neurosci. Res. 58:515-532, 1999) were used to examine the effects of Congo red on cell death or toxicity. […]
The latter procedure involved administration of 0.25 μl of the drug (1 mg/ml in 0.4% DMSO) per hour, for a period of at least 28 days. […] Polyglutamine inclusions were readily detected at the beginning of treatment. The effect of Congo red on the polyglutamine-induced toxicity in muscle strength in the animal model R62 was quantified by the use of a rotorod.
The mice were trained every day for a week after which time the latency to fall from a rotorod at a speed of 10 rpm was measured for each mouse, with a maximum time of 60 seconds per trial, as described by Carter et al., (J. Neurosci. 19:3248-3257, 1999). […]

[4] = test system: R62 mice and wild-type mice; assay: Body weight; assay type: in vivo
Source text: FIG. 10A is a graph showing the effect of Congo red or PBS (vehicle) on body weight in HD transgenic mice between 9 and 11 weeks of age (top graph) and between 9 and 13 weeks of age (bottom graph). Mice were infused intraperitoneally (IP) or by intracerebroventricular cannula (ICV) implanted into the predetermined coordinates on the left ventricle, or by both routes.
In addition, the ability of Congo red to inhibit the formation as well as to disrupt preformed polyglutamine oligomers allowed us to examine the role of polyglutamine aggregates in neuronal dysfunction and degeneration characteristic of polyglutamine expansion diseases. In these studies, we used the animal model of Huntington's disease (R62), which expresses the truncated form of huntingtin with 139 CAG repeats Mangiarini et al. (supra). We took advantage of our finding that in addition to inhibiting polyglutamine oligomerization, Congo red also disrupts pre-formed oligomers, thus allowing assessment of the impact of Congo red on disease progression after formation of polyglutamine aggregates and the onset of symptoms. […]
One of the common features of Huntington's disease is severe weight loss, proposed to be due to metabolic defects as a part of the systemic pathology of the expanded polyglutamine repeat diseases. We monitored the body weight of mice before and after treatment (FIG. 10A).

SMILES: Nc1c(/N=N/c2ccc(-c3ccc(/N=N/c4cc(S(=O)(=O)O)c5ccccc5c4N)cc3)cc2)cc(S(=O)(=O)O)c2ccccc12 [Congo red, diphenyldiazo-bis-alpha-napthylaminesulfonate]
- cell death induced by TNF-α/CHX, Fas/CHX, or H2O2 [1]: No effect
- steady state levels of HA-Q79 ([2]; Western blot, compared to negative controls): only slightly reduced steady state levels
- level of S35-labeled polyglutamine ([2]; after chase for 24 hours, versus control cells): more than two fold lower
- expression (synthesis) of expanded polyglutamine ([2]; one hour after chase): did not prevent the expression of expanded polyglutamine
- turnover rate of S35-labeled Q79 ([2]; versus control cells): at least a two fold higher turnover rate
- ability to remain on the rotorod [3]: exhibited a better ability to remain on the rotorod
- body weight, wild-type mice ([4]; 9 to 13 weeks, versus vehicle treated wild-type mice): no change in body weight
- loss of body weight, expanded polyglutamine repeat expressing mice ([4]; ICV or IP route of delivery): significantly ameliorated
